{"source": "patent US8263562B2", "about": "“Peptides for preventing or treating liver damage” (priority 2006, dated 2012)", "key": {"[1]": {"tested_on": "Sera of Patients with HCV (anti-HCV antibody-positive sera)", "test": "Indirect ELISA, reactivity of the peptides to anti-HCV antibody-positive sera", "format": "binding, human", "protocol": "Anti-HCV antibody-positive sera: randomly obtained from inpatients infected with HCV in the Liberation Army 302 Hospital from 2000 to 2001.\n(§1) The reactivity of the individual peptide of the invention to sera was detected by standard indirect ELISA technology using Model DG3022 Enzyme-Linked Immunoassay Analyzer (purchased from Perkin Elmer Corporation). 10 μg of Peptide A, Peptide B, Peptide C, and Peptide Conjugate A were added respectively into the basic coating buffer (0.1 mol/L NaHCO3, 35 μl; 0.1 mol/L Na2CO3, 15 μl; H2O, 50 μl), and then transferred into the wells of polypropylene/ethylene microtiter plate, and placed at 4° C. overnight. After adding 120 μl of FCS-PBS, each well was blocked at 37° C. for 2 hours. Sera (dilution of 1:100) were then added to the wells, and incubated at 37° C. for 1 hour. Goat anti-human IgGs (dilution of 1:1000) (purchased from Sino-American Biotechnology Company, Beijing) were then added to the wells, and incubated at 37° C. for 1 hour. 50 μl of Solution A and Solution B (purchased from Beijing Kewei Reagent Company) were added to every well, placed in the dark for 5 min, and then the absorbance at 450 nm was measured."}, "γ-IFN": {"tested_on": "γ-IFN", "test": "Level of γ-IFN in sera of immunized mice by ELISA", "format": "in vivo, BALB/c Mice", "settings": "first day after the fourth immunization", "protocol": "(§2) BALB/c Mice, all of which are male, 6 week old, and purchased from the Laboratory Animal Center of Academy Of Military Medical Sciences, Beijing, were divided into 4 groups as follows with 5 mice in each group: (1) the control group; (2) the Peptide A group, immunized with Peptide A; (3) the Peptide B group, immunized with Peptide B; and (4) the Peptide C group, immunized with Peptide C.\n(§3) 50 μl of the peptide (100 μg/μl) used in the corresponding group and 50 μl of Freund's complete adjuvant (GIBCOBRL Corp.) were mixed thoroughly with a microstirrer, and the mixture was injected into the claw pad of a mouse, thereby the first immunization was performed for each of the mice. 14 days later, booster immunization was performed in the same manner as the first immunization with 50 μl of the peptide (100 μg/μl) used in the corresponding group and 50 μl of Freund's complete adjuvant (GIBCOBRL Corp.). 14 days later, another booster immunization was performed in the same manner. 14 days later, boost immunization was performed by injecting 100 μg of the peptide dissolved in 200 μl PBS into the mouse intramuscularly. During the process of immunization, only the corresponding adjuvant and PBS were injected for the control group. At the first day after the fourth immunization, mice were sacrificed and sera were collected.\n(§4) According to the specification of the manufacturer, the levels of cytokines (i.e., IL-4, IL-10, and γ-IFN) in sera of the above immunized mice were detected respectively by using IL-4 Quantikine ELASA Kit, IL-10 Quantikine ELASA Kit, and γ-IFN Quantikine ELASA Kit (all of which are purchased from R&D, Inc.)."}, "IL-4": {"tested_on": "IL-4", "test": "Level of IL-4 in sera of immunized mice by ELISA", "format": "in vivo, BALB/c Mice", "settings": "first day after the fourth immunization", "protocol": "as §2, §3, §4"}, "sera of healthy donors": {"tested_on": "sera of healthy donors", "test": "Indirect ELISA, reactivity of the peptides to control sera of healthy donors", "format": "binding, human", "settings": "sera of 10 healthy donors", "protocol": "Control sera: obtained from healthy blood donors, who had normal blood indexes in each assay.\nas §1"}, "[2]": {"tested_on": "D-aminogalactose-induced acute liver damage", "test": "D-aminogalactose-induced acute liver damage of rats", "format": "in vivo, Wistar Rats", "settings": "high, medium, low dosage (174, 87, 43.5 μg/kg) with adjuvant, four immunizations; 48 h after D-aminogalactose 600 mg/kg", "description": "Wistar Rats (body weight of each was 180 g˜220 g; half of them were male and the others were female; and they were purchased from Shanghai Slac Laboratory Animal, Inc.) were divided randomly into 6 groups as follows with 10 rats in each group: (1) the diammonium glycyrrhizinate injection group, injected with diammonium glycyrrhizinate; (2) the high dose group, immunized with Peptide A and adjuvant; (3) the medium dose group, immunized with Peptide A and adjuvant; (4) the low dose group, immunized with Peptide A and adjuvant; (5) the blank control group; and (6) the model group.\nRats in the high dose group, the medium dose group and the low dose group were immunized as follows: At Day 0, the first immunization was performed by the following process: 100 μl of Peptide A dissolved in physiological saline was mixed thoroughly with the equivalent volume of Freund's complete adjuvant, and then 0.2 ml of the resultant water-in-oil emulsion was administered via subcutaneous injection to each rat, wherein the dosage of Peptide A contained in the emulsion was 174 μg/kg rat body weight for the high dose group, 87 μg/kg rat body weight for the medium dose group, and 43.5 μg/kg rat body weight for the low dose group respectively. 14 days later, the second immunization was performed in the same dosage and manner as the first immunization except that, Freund's complete adjuvant was replaced by Freund's incomplete adjuvant. […]\nAt the 48th hour after intraperitoneally injecting D-aminogalactose, each rat was sacrificed by cervical dislocation, and blood was collected. After sera were isolated, according to the specification of the manufacturer, the activities of glutamic-pyruvic transaminase (SGPT) and glutamic-oxalacetic transaminase (SGOT) in sera were detected respectively by using Glutamic-pyruvic Transaminase Detection Kit (purchased from Nanjing Jiancheng Bioengineering Institute) and Glutamic-oxalacetic Transaminase Detection Kit (purchased from Nanjing Jiancheng Bioengineering Institute)."}, "[3]": {"settings": "anti-HCV antibody-positive sera of 30 patients, sera dilution 1:100, 10 μg peptide coated"}}, "data": [{"substance": "GQTYTSG [Peptide A]", "values": [{"measurement": "reactivity to sera of patients with HCV compared to sera of patients with HBV and healthy donors", "setting": "[1]; X^2-test", "value": "significantly react"}, {"measurement": "Percentage of Positive Cases (%)", "setting": "[1]; [3]", "value": 43, "unit": "%"}, {"measurement": "The Number of Positive Cases", "setting": "[1]; [3]", "value": 13}, {"measurement": "γ-IFN(pg/ml serum)", "setting": "γ-IFN", "value": "23.46 ± 5.9", "unit": "pg/ml serum"}, {"measurement": "IL-4(pg/ml serum)", "setting": "IL-4", "value": "29.64 ± 4.9", "unit": "pg/ml serum"}, {"measurement": "reactivity in ELISA Assay to sera of healthy donors", "setting": "sera of healthy donors", "value": "negative"}, {"measurement": "level of glutamic-oxalacetic transaminase (SGOT) in sera versus model group", "setting": "[2]", "value": "significant decrease"}, {"measurement": "level of glutamic-pyruvic transaminase (SGPT) in sera versus model group", "setting": "[2]", "value": "significant decrease"}]}]}
